EP0090603A2, “Antibacterial compounds” (BEECHAM GROUP PLC, priority 1982, dated 1983)
In brackets after ≈: the same amount, converted by molar mass.

Tests used:
E. coli E1 = assay: MIC against Veterinary Bacteria, in vitro agar dilution; conditions: Escherichia coli, E1, 18 h, read-out: MIC's against E. coli E1
Protocol: (§1) The activity of the compounds of the Examples against various veterinarily important bacteria, was assayed in vitro using two-fold serial dilutions in Diagnostic Sensitivity Test Agar inoculated with 10^4 organisms.

Staph. aureus Oxford = assay: as above; conditions: Staphylococcus aureus, 18 h, read-out: MIC's against Staph. aureus Oxford
Protocol: as §1

M. suipneumoniae MS 16 = assay: MIC against Mycoplasma, in vitro agar dilution; format: cell-based; conditions: Mesomycoplasma hyopneumoniae, MS16, 144 h; Friis broth solidified with 0.9% agarose, 10^3 to 10^5 C.F.U., 6 days at 37°C; read-out: MIC's against M. suipneumoniae MS 16
M. suipneumoniae TAM 6N = assay: MIC against Mycoplasma, in vitro agar dilution; format: cell-based; conditions: Mesomycoplasma hyopneumoniae, TAM6N, 144 h; Friis broth solidified with 0.9% agarose, 10^3 to 10^5 C.F.U., 6 days at 37°C; read-out: MIC's against M. suipneumoniae TAM 6N
M. suipneumoniae UCD 1 = assay: MIC against Mycoplasma, in vitro agar dilution; format: cell-based; conditions: Mesomycoplasma hyopneumoniae, UCD1, 144 h; Friis broth solidified with 0.9% agarose, 10^3 to 10^5 C.F.U., 6 days at 37°C; read-out: MIC's against M. suipneumoniae UCD 1
[1] = tested on: Staph. aureus 152 (pen. sens); assay: MIC against Veterinary Bacteria, in vitro agar dilution; conditions: Staphylococcus aureus, 18 h, read-out: MIC's against Staph. aureus 152 (pen. sens)
Protocol: as §1

[2] = tested on: Staph. aureus B4 (pen. resistant); assay: as above; conditions: Staphylococcus aureus, 18 h, read-out: MIC's against Staph. aureus B4 (pen. resistant)
Protocol: as §1

Past. multocida PA2 = assay: as above; conditions: Pasteurella multocida, PA2, 18 h, read-out: MIC's against Past. multocida PA2
Protocol: as §1

[3] = tested on: M. hyosynoviae ATCC 25591; assay: MIC against Mycoplasma, in vitro agar dilution; format: cell-based; conditions: 144 h; Friis broth solidified with 0.9% agarose, 10^3 to 10^5 C.F.U., 6 days at 37°C; read-out: MIC's against M. hyosynoviae ATCC 25591
M. hyorhinis ATCC 25021 = assay: MIC against Mycoplasma, in vitro agar dilution; format: cell-based; conditions: Mesomycoplasma hyorhinis, ATCC25021, 144 h; Friis broth solidified with 0.9% agarose, 10^3 to 10^5 C.F.U., 6 days at 37°C; read-out: MIC's against M. hyorhinis ATCC 25021
E. coli NCTC 10418 = assay: MIC against Veterinary Bacteria, in vitro agar dilution; conditions: Escherichia coli, NCTC10418, 18 h, read-out: MIC's against E. coli NCTC 10418
Protocol: as §1

Strep. dysgalactiae SPD1 = assay: as above; conditions: Streptococcus dysgalactiae, SPD1, 18 h, read-out: MIC's against Strep. dysgalactiae SPD1
Protocol: as §1

Past. haemolytica PA5 = assay: as above; conditions: Mannheimia haemolytica, PA5, 18 h, read-out: MIC's against Past. haemolytica PA5
Protocol: as §1

M. pneumoniae ATCC 15492 = assay: MIC against Mycoplasma, in vitro agar dilution; format: cell-based; conditions: Mycoplasmoides pneumoniae, ATCC15492, 144 h; Friis broth solidified with 0.9% agarose, 10^3 to 10^5 C.F.U., 6 days at 37°C; read-out: MIC's against M. pneumoniae ATCC 15492

Compound | MIC (E. coli E1) [µg/mL] | MIC (Staph. aureus Oxford) [µg/mL] | MIC (M. suipneumoniae MS 16) [µg/mL] | MIC (M. suipneumoniae TAM 6N) [µg/mL] | MIC (M. suipneumoniae UCD 1) [µg/mL] | MIC [1] [µg/mL] | MIC [2] [µg/mL] | MIC (Past. multocida PA2) [µg/mL] | MIC [3] [µg/mL] | MIC (M. hyorhinis ATCC 25021) [µg/mL] | MIC (E. coli NCTC 10418) [µg/mL] | MIC (Strep. dysgalactiae SPD1) [µg/mL] | MIC (Past. haemolytica PA5) [µg/mL] | MIC (M. pneumoniae ATCC 15492) [µg/mL]
COC(=O)C(C)=C(C)CC1OCC(CC2OC2C(C)C(C)O)C(O)C1O [Example 2, Methyl 4-[5S-(2S,3S-epoxy-5S-hydroxy-4S-methylhexyl)-3R,4R-dihydroxytetrahydropyran-2S-yl]-2,3-dimethylbut-2(E)-enoate] | > 80 | 5 (≈ 13.4 µM) | 5 (≈ 13.4 µM) | 10 (≈ 26.8 µM) | 10 (≈ 26.8 µM) | 5 (≈ 13.4 µM) | 5 (≈ 13.4 µM) | 5 (≈ 13.4 µM) | 5 (≈ 13.4 µM) | 5 (≈ 13.4 µM) | > 80 | 40 (≈ 107 µM) | 40 (≈ 107 µM) | 
CC(CC1OCC(CC2OC2C(C)C(C)O)C(O)C1O)=C(C)C(=O)O [Example 4, Sodium 4-[5S-(2S, 35-epoxy-5S-hydroxy-4S-methylhexyl)-3R,4R-dihydroxytetrahydropyran-2S-yl]-2,3-dimethylbut-2(E)-enoate] | > 80 | 1.25 | 0.1 | 0.25 | 0.25 | 1.25 | 1.25 | 2.5 | 0.25 | 0.1 | > 80 | 1.25 | 10 | 5
CC(CC1OCC(CC2OC2C(C)C(C)O)C(O)C1O)=C(C)C(=O)OCc1cccc([N+](=O)[O-])c1 [Example 3, m-Nitrobenzyl 4-[5S-(2S,3S-epoxy-5S-hydroxy-4S-methylhexyl)-3R,4R-dihydroxytetrahydropyran-2S-yl]-2,3-di-methylbut-2(E)-enoate] | > 80 | 1.25 (≈ 2.53 µM) | 0.025 (≈ 0.0507 µM) | 0.1 (≈ 0.203 µM) | 0.05 (≈ 0.101 µM) | 1.25 (≈ 2.53 µM) | 1.25 (≈ 2.53 µM) | 1.25 (≈ 2.53 µM) | 0.25 (≈ 0.507 µM) | 0.025 (≈ 0.0507 µM) | > 80 | 0.312 (≈ 0.632 µM) | 10 (≈ 20.3 µM) | 2.5 (≈ 5.07 µM)
CCOC(=O)C(C)=C(C)CC1OCC(CC2OC2C(C)C(C)O)C(O)C1O [Example 1, Ethyl 4-[5S-(2S,3S-epoxy-5S-hydroxy-4S-methylhexyl)-3R,4R-dihydroxytetrahydropyran-2S-yl]-2,3-dimethylbut-2(E)-enoate] | > 80 | 0.625 (≈ 1.62 µM) | 0.5 (≈ 1.29 µM) | 2.5 (≈ 6.47 µM) | 2.5 (≈ 6.47 µM) | 0.625 (≈ 1.62 µM) | 0.625 (≈ 1.62 µM) | 1.25 (≈ 3.23 µM) | 1 (≈ 2.59 µM) | 0.5 (≈ 1.29 µM) | > 80 | 5 (≈ 12.9 µM) | 20 (≈ 51.7 µM) | 10 (≈ 25.9 µM)
